Values of other authors as cited in publication PMC13601336 (Frontiers in Pharmacology, 2026).

Target: T1, UGT1A1 (Homo sapiens, UniProt P22309)
T1 construct: purchased BD Gentest (Woburn, MA, USA)
T1 sequence (P22309 26-533): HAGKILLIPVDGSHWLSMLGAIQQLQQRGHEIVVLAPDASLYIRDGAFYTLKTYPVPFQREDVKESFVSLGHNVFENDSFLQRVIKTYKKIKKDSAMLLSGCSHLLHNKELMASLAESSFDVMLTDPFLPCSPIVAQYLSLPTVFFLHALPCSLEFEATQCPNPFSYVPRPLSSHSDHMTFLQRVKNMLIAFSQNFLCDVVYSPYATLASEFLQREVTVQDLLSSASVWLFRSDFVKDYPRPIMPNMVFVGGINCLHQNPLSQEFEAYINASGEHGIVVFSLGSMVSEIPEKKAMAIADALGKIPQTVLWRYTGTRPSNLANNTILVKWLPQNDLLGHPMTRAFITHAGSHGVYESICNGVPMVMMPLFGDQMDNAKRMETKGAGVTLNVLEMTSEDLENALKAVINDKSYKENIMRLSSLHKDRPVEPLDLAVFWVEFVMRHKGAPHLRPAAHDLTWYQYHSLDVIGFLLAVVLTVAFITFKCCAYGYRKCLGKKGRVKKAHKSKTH
Settings: ref Zhang et al., 2021

O=c1c(O)c(-c2ccc(O)c(O)c2)oc2cc(O)cc(O)c12 [Quercetin, quercetin]
Ki: 2180 nM
